From ChEMBL document CHEMBL3853273, “Multi-target screening mines hesperidin as a multi-potent inhibitor: Implication in Alzheimer's disease therapeutics” (Eur J Med Chem, 2016)
Active and inactive are the calls of the source. The rule behind the calls is not given here.

How the values were obtained:
[1] = Antioxidant activity of the compound assessed as inhibition of fenton reaction-induced DNA strand cleavage of plasmid pcDNA Hismyc B4 after 1 hr by ethidium bromide staining-based agarose gel electrophoresis; assay type: functional
[2] = biological target: Amyloid-beta precursor protein (Homo sapiens) (UniProt P05067); assay: Inhibition of amyloid beta (25 to 35 residues) (unknown origin) aggregation at 20 uM incubated for 3 days by 8-anilino-1-naphthalene-based fluorescence spectrophotometric method
Amyloid-beta precursor protein (Homo sapiens), sequence (P05067 whole entry, the tested form may be a part): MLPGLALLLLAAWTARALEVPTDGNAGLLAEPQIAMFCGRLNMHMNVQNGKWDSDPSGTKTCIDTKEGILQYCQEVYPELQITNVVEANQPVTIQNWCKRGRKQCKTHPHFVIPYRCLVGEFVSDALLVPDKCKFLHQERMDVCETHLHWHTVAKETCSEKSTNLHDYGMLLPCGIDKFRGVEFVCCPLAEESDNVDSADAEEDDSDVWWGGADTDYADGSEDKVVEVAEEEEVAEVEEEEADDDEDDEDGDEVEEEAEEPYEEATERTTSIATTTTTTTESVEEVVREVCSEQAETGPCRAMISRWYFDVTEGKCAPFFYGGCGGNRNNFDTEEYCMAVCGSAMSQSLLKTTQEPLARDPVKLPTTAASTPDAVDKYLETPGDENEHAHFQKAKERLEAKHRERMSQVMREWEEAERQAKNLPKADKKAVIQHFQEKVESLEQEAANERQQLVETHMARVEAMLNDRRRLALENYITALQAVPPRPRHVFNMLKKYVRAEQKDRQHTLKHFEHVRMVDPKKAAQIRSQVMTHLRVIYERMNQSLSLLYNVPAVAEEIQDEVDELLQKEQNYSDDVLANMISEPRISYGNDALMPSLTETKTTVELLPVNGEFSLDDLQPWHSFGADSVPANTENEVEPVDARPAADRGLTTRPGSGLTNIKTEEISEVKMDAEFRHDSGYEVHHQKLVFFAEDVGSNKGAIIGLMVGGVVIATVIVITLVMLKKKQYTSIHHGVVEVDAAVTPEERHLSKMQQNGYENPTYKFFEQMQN

[3] = biological target: Amyloid-beta precursor protein (Homo sapiens) (UniProt P05067); assay: Inhibition of amyloid beta (25 to 35 residues) (unknown origin) aggregation at 20 uM incubated for 3 days by thioflavin T-based fluorescence spectrophotometric method
[4] = biological target: Beta-secretase 1 (Homo sapiens) (UniProt P56817); assay: Binding affinity to BACE1 (unknown origin) in acetate buffer at pH 4.8 assessed as increase in lifetime species of excited tryptophan in active site at 5 uM by time-resolved fluorescence spectroscopy relative to control
Beta-secretase 1 (Homo sapiens), sequence (P56817 whole entry, the tested form may be a part): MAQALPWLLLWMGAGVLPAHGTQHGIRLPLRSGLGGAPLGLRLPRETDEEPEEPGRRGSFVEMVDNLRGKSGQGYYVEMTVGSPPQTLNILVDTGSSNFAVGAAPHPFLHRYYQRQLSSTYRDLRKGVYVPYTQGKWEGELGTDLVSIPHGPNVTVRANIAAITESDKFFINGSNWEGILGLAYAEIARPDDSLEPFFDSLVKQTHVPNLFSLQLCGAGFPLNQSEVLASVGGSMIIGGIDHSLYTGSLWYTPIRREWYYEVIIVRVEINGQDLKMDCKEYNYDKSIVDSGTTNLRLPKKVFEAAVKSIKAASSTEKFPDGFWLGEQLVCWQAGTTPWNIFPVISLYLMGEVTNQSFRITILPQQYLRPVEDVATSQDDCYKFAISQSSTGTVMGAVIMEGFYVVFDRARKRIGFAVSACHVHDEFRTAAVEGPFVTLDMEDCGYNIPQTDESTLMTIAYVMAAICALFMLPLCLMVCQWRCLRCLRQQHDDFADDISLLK

[5] = Antioxidant activity of the compound assessed as ABTS free radical scavenging activity; assay type: functional
[6] = biological target: Beta-secretase 1 (Homo sapiens) (UniProt P56817); assay: Binding affinity to BACE1 (unknown origin) in acetate buffer at pH 4.8 at 0.25 to 5 uM by steady state spectrofluorimeter
[7] = biological target: Amyloid-beta precursor protein (Homo sapiens) (UniProt P05067); assay: Inhibition of amyloid beta (25 to 35 residues) (unknown origin) aggregation at 100 uM incubated for 7 days by atomic force microscopic method
[8] = biological target: Amyloid-beta precursor protein (Homo sapiens) (UniProt P05067); assay: Inhibition of amyloid beta (25 to 35 residues) (unknown origin) aggregation at 20 uM incubated for 3 days by intrinsic flavonoid fluorescence assay
[9] = biological target: Beta-secretase 1 (Homo sapiens) (UniProt P56817); assay: Inhibition of BACE1 (unknown origin) at 500 nM incubated for 2 hrs by FRET assay relative to control
[10] = Antioxidant activity of the compound assessed as inhibition of fenton reaction-induced DNA strand cleavage of plasmid pcDNA Hismyc B4 at 250 uM after 1 hr by ethidium bromide staining-based agarose gel electrophoresis; assay type: functional
[11] = biological target: Beta-secretase 1 (Homo sapiens) (UniProt P56817); assay: Binding affinity to BACE1 (unknown origin) in PBS at pH 7.4 up to 10 uM by steady state spectrofluorimeter
[12] = biological target: Beta-secretase 1 (Homo sapiens) (UniProt P56817); assay: Binding affinity to BACE1 (unknown origin) in acetate buffer at pH 4.8 at 250 nM by steady state spectrofluorimeter
[13] = biological target: Amyloid-beta precursor protein (Homo sapiens) (UniProt P05067); assay: Inhibition of amyloid beta (25 to 35 residues) (unknown origin) aggregation at 10 uM incubated for 3 days by thioflavin T-based fluorescence spectrophotometric method relative to control
[14] = biological target: Beta-secretase 1 (Homo sapiens) (UniProt P56817); assay: Binding affinity to BACE1 (unknown origin) by fluorescence titration method

| inhibition [2] | inhibition [3] | fold change (FC) [4] | IC50 [5] | Activity [6] | inhibition [7] | inhibition [8] | inhibition [9] | Activity [11] | Activity [12] | inhibition [13] | K [14] | SMILES | inhibition [1] | Activity [5] | inhibition [10] |
| --- | --- | --- | --- | --- | --- | --- | --- | --- | --- | --- | --- | --- | --- | --- | --- |
| – | – | – | – | – | – | – | – | – | – | – | – | Cc1c(C)c2c(c(C)c1O)CCC(C)(C(=O)O)O2 (stereo not given) | Active | – | – |
| Active | Active | 2.5 | 16.5 µM | Active | Active | Active | 100% | Active | Active | 40% | 302000 | COc1ccc([C@@H]2CC(=O)c3c(O)cc(O[C@@H]4O[C@H](CO[C@@H]5O[C@@H](C)[C@H](O)[C@@H](O)[C@H]5O)[C@@H](O)[C@H](O)[C@H]4O)cc3O2)cc1O [HESPERIDIN] | – | Dose-dependent effect | Active |
